In patent US12643867B2, “Compositions and uses thereof” (University of Virginia Patent Foundation, priority 2017, dated 2026):

Assays:
Test in all cases: SILAC LC-MS ATP acyl phosphate probe competition, native kinases in HEK293T
Assay type in all cases: binding
[1] = target: T1, CDK1 (Cell division control protein 2 homolog) (Homo sapiens, UniProt P06493); details: site Lys2; ATP 1 mM; Ketanserin, Ritanserin 100 μM; RF001 1 mM
T1 construct: measured against >50 native kinases quantified in HEK293T soluble proteomes; endogenous in cells; host or cells: HEK293T soluble proteome
T1 sequence (P06493 whole entry): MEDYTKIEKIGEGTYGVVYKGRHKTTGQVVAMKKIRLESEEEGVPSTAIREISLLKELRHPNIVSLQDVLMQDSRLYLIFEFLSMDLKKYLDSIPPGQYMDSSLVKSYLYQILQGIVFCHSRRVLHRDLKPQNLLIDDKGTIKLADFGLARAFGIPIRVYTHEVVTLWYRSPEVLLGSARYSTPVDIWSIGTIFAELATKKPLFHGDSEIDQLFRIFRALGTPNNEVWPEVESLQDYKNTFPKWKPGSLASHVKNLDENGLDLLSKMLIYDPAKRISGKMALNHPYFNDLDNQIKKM
In short: (§1)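 First, HEK293T proteomes at 2 mg/ml in kinase buffer were exposed to compound (heavy) or DMSO (light) for 30 min at 25° C. Next, samples were pooled 1:1 and trypsin/Lys-C digested. Finally, desthiobiotin peptides were enriched on avidin and measured by data-dependent LC-MS/MS.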

[2] = target: T2, PI42C (Phosphatidylinositol-5-phosphate 4-kinase type-2 gamma) (Homo sapiens, UniProt Q8TBX8); details: site C2; ATP 1 mM; Ketanserin, Ritanserin 100 μM; RF001 1 mM
T2 construct: Native kinases; endogenous in cells; host or cells: HEK293T soluble proteome
T2 sequence (Q8TBX8 1-421): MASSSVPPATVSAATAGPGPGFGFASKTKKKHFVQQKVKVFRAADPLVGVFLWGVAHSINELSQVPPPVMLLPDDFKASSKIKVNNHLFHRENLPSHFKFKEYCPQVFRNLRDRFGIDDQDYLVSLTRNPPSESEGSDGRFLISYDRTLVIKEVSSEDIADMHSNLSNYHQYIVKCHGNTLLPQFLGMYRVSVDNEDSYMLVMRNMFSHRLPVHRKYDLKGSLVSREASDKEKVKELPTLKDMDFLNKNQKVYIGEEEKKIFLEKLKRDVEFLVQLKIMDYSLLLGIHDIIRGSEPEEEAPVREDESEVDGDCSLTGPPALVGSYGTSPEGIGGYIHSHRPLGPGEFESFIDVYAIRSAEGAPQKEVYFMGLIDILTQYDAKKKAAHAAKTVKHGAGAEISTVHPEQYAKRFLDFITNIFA
In short: as §1

[3] = target: T3, ULK3 (Unc-51-like kinase 3) (Homo sapiens, UniProt Q6PHR2); details: site Lys1; ATP 1 mM; Ketanserin, Ritanserin 100 μM; RF001 1 mM
T3 construct: Native kinases; endogenous in cells; host or cells: HEK293T soluble proteome
T3 sequence (Q6PHR2 1-472): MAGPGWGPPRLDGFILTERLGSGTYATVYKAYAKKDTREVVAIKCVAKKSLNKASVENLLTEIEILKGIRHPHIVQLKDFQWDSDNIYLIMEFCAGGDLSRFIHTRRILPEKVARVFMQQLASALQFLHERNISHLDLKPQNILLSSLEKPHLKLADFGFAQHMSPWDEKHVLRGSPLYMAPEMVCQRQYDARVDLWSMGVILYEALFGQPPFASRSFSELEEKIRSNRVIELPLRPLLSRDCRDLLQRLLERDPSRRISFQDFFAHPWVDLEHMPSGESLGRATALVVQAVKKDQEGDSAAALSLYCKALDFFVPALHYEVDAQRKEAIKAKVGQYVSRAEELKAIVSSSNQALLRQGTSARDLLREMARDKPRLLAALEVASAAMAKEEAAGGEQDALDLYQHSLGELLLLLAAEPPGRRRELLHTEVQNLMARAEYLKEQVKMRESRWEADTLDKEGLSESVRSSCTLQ
In short: as §1

Compound | SILAC ratio, CDK1 probe-modified peptide [1] | SILAC ratio, PI42C probe-modified peptide [2] | SILAC ratio, ULK3 probe-modified peptide [3]
O=C(c1ccc(F)cc1)C1CCN(CCn2c(=O)[nH]c3ccccc3c2=O)CC1 [Ketanserin] | 1.4 | 1.2 | 2.3
Fc1ccc(C(=C2CCNCC2)c2ccc(F)cc2)cc1 [RF001, 4-(Bis(4-fluorophenyl)methylene) piperidine] | 1.1 | 0.8 | 1.4
Cc1nc2sccn2c(=O)c1CCN1CCC(=C(c2ccc(F)cc2)c2ccc(F)cc2)CC1 [Ritanserin] | 2.4 | 1.7 | 1.8
